Test [1] relates to A2780 ovarian cancer cells. Briefly: Antiproliferative activity to A2780 ovarian cancer cells. In kind it is cell-based. The settings on record: Homo sapiens, A2780, read-out: IC50 A2780 (antiproliferative activity).
Test [2] has as its system tubulin. Nature of the test: Promotion of in vitro tubulin polymerization. The settings on record: in vitro tubulin assembly. Format: biochemical.

In the case of `C/C(=C\c1csc(C)n1)[C@@H]1C[C@@H]2O[C@]2(C)CCC[C@H](C)[C@H](O)[C@@H](C)C(=O)C(C)(C)[C@@H](O)CC(=O)O1` [Compound 2, epothilone B], the IC50 – broadly, the midpoint of a concentration-inhibition curve – in test [1] worked out at 1.9 ± 0.2 nM.
Turning to `C/C1=C/C[C@@H](/C(C)=C/c2csc(C)n2)OC(=O)C[C@H](O)C(C)(C)C(=O)[C@H](C)[C@@H](O)[C@@H](C)CCC1` [Compound 4, epothilone D], the half-inhibitory concentration (IC50) in test [1] came out at 6.8 ± 1.7 nM. The “ED50, Tb polym. (promotion of tubulin polymerization)” value in test [2] is 440 ± 20 nM.

Values taken from publication PMC2930754 (Chemical communications (Cambridge, England), 2010).
